How the values were obtained:
MMP-1 [1] = assay: Zymography of MMP-1 from pre-treated SW1353 cells; assay type: cell-based, human; settings: PMA-pre-treated SW1353; 0.1 μM, 24 h
Method: (§1) At the beginning of the experiment, the cells were pre-treated with 100 ng/mL PMA or 10 ng/mL IL-1β for 24 hours. The cells were then treated with 0.1 μM Dexamethasone, various astragaloside compounds (0.1 μM) or extracts of Astragalus membranaceous (1 μg/mL) at indicated dosages for another 24 hours. For control sample, 0.1% DMSO was used as a negative control for these experiments. The conditioned culture mediums were then centrifuged, 2-fold concentrated and collected for assay of collagens or MMPs secreted into the culture medium.
(§2) The proteolytic activities of MMPs from SW1353 cells were measured essentially as described previously (Circ Res, 1999; 85:906-911). The cells were lysed in lysis buffer (1% Triton X-100, 50 mM Tris-Cl, pH 7.4, 180 mM NaCl, 1 mM EDTA). The samples were measured for their protein concentration using the bicinchoninic acid (BCA) protein assay kit as described. Samples of concentrated conditioned medium and cell lysates were mixed with non-reducing electrophoresis loading buffer and subjected to electrophoresis under non-reducing conditions. The electrophoresis was carried out on a 10% SDS-PAGE co-polymerized with 2 mg/mL gelatin or casein (Sigma, St. Louis, Mo. USA). For zymographic analysis of pro-MMP-2 and activated MMP-2, the total 20 μg of culture medium were used for electrophoresis. Following electrophoresis, renaturation of the proteins was achieved by incubating the gels twice in 25 g/L Triton X-100 at room temperature for 10 min. Subsequently the gels were incubated in 50 mM Tris-HCl, pH 7.5 containing 0.2 M NaCl, 0.02% Brij35 and 10 mM CaCl2 at 37° C. for 18 hours. After the gels were stained with Coomassie Brilliant Blue R-250 and destained, zones of proteolytic activities became visible as transparent bands in the stained gel. In order to obtain higher sensitivity, the gels were further destained in a solution of 1% Triton X-100 (1 to 2 hours). This procedure increased the signal-to-noise ratio, allowing the visualization of faint gelatinase bands at 92 kDa, 125 kDa and greater than 200 kDa. Zymograms were read using a Molecular Dynamics (Sunnyvale, Calif., USA) computing laser densitometer with Image Quant software.

MMP-9 = assay: Zymography of MMP-9 from pre-treated SW1353 cells; assay type: cell-based, human; settings: PMA-pre-treated SW1353; 0.1 μM, 24 h
Method: as §1, §2

MMP-13 [2] = assay: Western blot of MMP-13 in PMA- or IL-1β-pre-treated SW1353 cells (Example 6); assay type: cell-based, human; settings: 0.1 μM, 48 h
Method: (§3) The cells were then plated on 6-cm dishes at a density of 1×10^6 cells/dish for 24 hours prior to any treatment. At the beginning of the experiment, the cells were pre-treated with 100 ng/mL PMA or 10 ng/mL IL-1β for 24 hours. The cells were then treated 0.1 μM Dexamethasone with, various astragaloside compounds (0.1 μM) or extracts of Astragalus membranaceous (1 μg/mL) at indicated dosages for another 48 hours. For control sample, 0.1% DMSO was used as a negative control for these experiments. The conditioned culture mediums were then centrifuged, 2-fold concentrated and collected for assay of collagens or MMPs secreted into the culture medium.
Western blotting analysis was carried out on both cultured medium and cell lysates, as follows. The cells were washed and lysed in 0.2 mL of lysis buffer (1% NP-40, 50 mM Tris-HCl, pH 7.4, 180 mM NaCl, 1 mM EDTA, 1 mM PMSF, 1 mM NaF, 10 mM Na3VO4) for 30 min at 4° C. After centrifuging at 17500 g for 15 min, the supernatants of cell lysate were also collected. Protein concentration of the samples were measured using the bicinchoninic acid (BCA) protein assay kit according to the manufacturer's protocol (Pierce, Rockford, Ill., USA). Equal amount of protein samples of concentrated conditioned medium (100 μg) or cell lysate supernatants (50 μg) were mixed with an appropriate volume of 4×SDS sampling buffer and separated by 8% SDS-PAGE gel. The protein bands separated in the SDS-PAGE gel were blotted onto a polyvinylidene fluoride (PVDF) membrane. The blotted PVDF membrane was washed twice and blocked in freshly prepared Tris-buffered saline (TBS) containing 0.1% Tween-20 and 7% skim milk (TBST) for 2 hours at room temperature. […] Horseradish peroxidase-conjugated anti-goat antibody was used as secondary antibody. Signals were visualized by an enhanced chemiluminescence kit (Clonetech, Palo Alto, Calif., USA) followed by exposure to X-ray films.

MMP-13 [3] = assay: Western blot of MMP-13 in pre-treated human chondrocytes (HCHs); assay type: cell-based; settings: IL-1β-pre-treated HCH culture medium; compounds 0.1 μM, 48 h
MMP-1 [4] = assay: Western blot of MMP-1 in PMA- or IL-1β-pre-treated SW1353 cells (Example 6); assay type: cell-based, human; settings: 48 h
Method: as §3
Western blotting analysis was carried out on both cultured medium and cell lysates, as follows. The cells were washed and lysed in 0.2 mL of lysis buffer (1% NP-40, 50 mM Tris-HCl, pH 7.4, 180 mM NaCl, 1 mM EDTA, 1 mM PMSF, 1 mM NaF, 10 mM Na3VO4) for 30 min at 4° C. After centrifuging at 17500 g for 15 min, the supernatants of cell lysate were also collected. Protein concentration of the samples were measured using the bicinchoninic acid (BCA) protein assay kit according to the manufacturer's protocol (Pierce, Rockford, Ill., USA). Equal amount of protein samples of concentrated conditioned medium (100 μg) or cell lysate supernatants (50 μg) were mixed with an appropriate volume of 4×SDS sampling buffer and separated by 8% SDS-PAGE gel. The protein bands separated in the SDS-PAGE gel were blotted onto a polyvinylidene fluoride (PVDF) membrane. The blotted PVDF membrane was washed twice and blocked in freshly prepared Tris-buffered saline (TBS) containing 0.1% Tween-20 and 7% skim milk (TBST) for 2 hours at room temperature. The PVDF membrane was then incubated with either antibodies against collagen I and III or the housekeeping protein α-tubulin (Santa Cruz Biotechnology, Santa Cruz, Calif.) for 18 hours at 4° C. Horseradish peroxidase-conjugated anti-goat antibody was used as secondary antibody. Signals were visualized by an enhanced chemiluminescence kit (Clonetech, Palo Alto, Calif., USA) followed by exposure to X-ray films.

## CC(C)(O)[C@@H]1CC[C@](C)([C@H]2[C@@H](O)C[C@@]3(C)[C@@H]4C[C@H](O[C@@H]5O[C@H](CO)[C@@H](O)[C@H](O)[C@H]5O)[C@H]5C(C)(C)[C@@H](O[C@@H]6OC[C@@H](O)[C@H](O)[C@H]6O)CC[C@@]56C[C@@]46CC[C@]23C)O1 [AS4, Astragaloside IV]
MMP-1 [1]
  MMP-1, Zymography, relative to Ctrl 1.00: 0.68
MMP-9
  MMP-9, Zymography, relative to Ctrl 1.00: 1.04
MMP-13 [2]; IL-1β-pre-treated SW1353 cell extract
  MMP-13, Western blot, relative to Ctrl 1.00: 1.10
MMP-13 [2]; IL-1β-pre-treated SW1353 culture medium
  MMP-13, Western blot, relative to Ctrl 1.00: 0.56
MMP-13 [2]; PMA-pre-treated SW1353 cell extract
  MMP-13, Western blot, relative to Ctrl 1.00: 0.79
MMP-13 [3]
  MMP-13, Western blot, relative to Ctrl 1.00: 0.55
MMP-1 [4]; IL-1β-pre-treated SW1353 cell extract, compounds 0.1 μM
  MMP-1, Western blot, relative to Ctrl 1.00: 0.22
MMP-1 [4]; PMA-pre-treated SW1353 cell extract, 0.1 μM
  MMP-1, Western blot, relative to Ctrl 1.00: 0.74

Reference: patent US8168596B2, “Use of cycloartane compounds for treating arthritis” (NuLiv Holding Inc., priority 2008, dated 2012)
